One experiment has as its target T1, human oxytocin receptors (Homo sapiens, UniProt P30559).
T1 construct: expressed in transfected cells; host or cells: HEK-293, transient expression; lysed and homogenized cells
T1 sequence (P30559 1-389): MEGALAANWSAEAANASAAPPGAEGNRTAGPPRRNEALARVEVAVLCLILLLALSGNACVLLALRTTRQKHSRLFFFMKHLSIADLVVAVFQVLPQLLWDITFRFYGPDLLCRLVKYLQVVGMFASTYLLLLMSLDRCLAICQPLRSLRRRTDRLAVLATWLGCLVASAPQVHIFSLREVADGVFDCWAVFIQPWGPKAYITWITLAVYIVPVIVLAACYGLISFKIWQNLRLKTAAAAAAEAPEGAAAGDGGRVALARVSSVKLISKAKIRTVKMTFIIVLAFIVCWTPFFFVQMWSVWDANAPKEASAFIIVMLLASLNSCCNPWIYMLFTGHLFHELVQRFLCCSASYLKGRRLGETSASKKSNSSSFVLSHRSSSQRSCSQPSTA
Put plainly: Oxytocin receptor binding assay. To be noted: selectivity quotient. As to the method:
4. Oxytocin Receptor Binding Assay
The substances were dissolved in a concentration of 10^−2 M in DMSO and diluted with incubation buffer (50 mM Tris, 10 mM MgCl2, 0.1% BSA, pH 7.4).
Confluent HEK-293 cells with transiently expressing recombinant human oxytocin receptors were centrifuged at 750×g at room temperature for 5 minutes. The residue was taken up in ice-cold lysis buffer (50 mM Tris-HCl, 10% glycerol, pH 7.4 and Roche complete protease inhibitor) and subjected to an osmotic shock at 4° C. for 20 minutes. The lyzed cells were then centrifuged at 750×g at 4° C. for 20 minutes, the residue was taken up in incubation buffer, and aliquots of 10^7 cells/ml were prepared. The aliquots were frozen at −80° C. until used.
On the day of the experiment, the cells were thawed, diluted with incubation buffer and homogenized using a Multipette Combitip (Eppendorf, Hamburg). The reaction mixture of 0.250 ml was composed of 2 to 5×10^4 recombinant cells, 3-4 nM ^3H-oxytocin (PerkinElmer, NET 858) in the presence of test substance (inhibition plot) or only incubation buffer (total binding). The nonspecific binding was determined with 10^−6 M oxytocin (Bachem AG, H2510). Triplicate determinations were set up. Bound and free radioligand were separated by filtration under vacuum with Whatman GF/B glass fiber filters with the aid of a Skatron cell harvester 7000. The bound radioactivity was determined by liquid scintillation measurement in a Tricarb Beta counter, model 2000 or 2200CA (Packard).
The binding parameters were calculated by nonlinear regression analysis (SAS) in analogy to the LIGAND program of Munson and Rodbard (Analytical Biochem 1980; 107: 220-239). The Kd of ^3H-oxytocin for the recombinant hOT receptors is 7.6 nM and was used to determine the Ki.

In experiment [1] the target is T2, human vasopressin V1b receptor (Homo sapiens, UniProt P47901).
T2 construct: expressed in transfected cells; host or cells: CHO-K1 (cell line hV1b_3H2_CHO), membrane preparation
T2 sequence (P47901 1-424): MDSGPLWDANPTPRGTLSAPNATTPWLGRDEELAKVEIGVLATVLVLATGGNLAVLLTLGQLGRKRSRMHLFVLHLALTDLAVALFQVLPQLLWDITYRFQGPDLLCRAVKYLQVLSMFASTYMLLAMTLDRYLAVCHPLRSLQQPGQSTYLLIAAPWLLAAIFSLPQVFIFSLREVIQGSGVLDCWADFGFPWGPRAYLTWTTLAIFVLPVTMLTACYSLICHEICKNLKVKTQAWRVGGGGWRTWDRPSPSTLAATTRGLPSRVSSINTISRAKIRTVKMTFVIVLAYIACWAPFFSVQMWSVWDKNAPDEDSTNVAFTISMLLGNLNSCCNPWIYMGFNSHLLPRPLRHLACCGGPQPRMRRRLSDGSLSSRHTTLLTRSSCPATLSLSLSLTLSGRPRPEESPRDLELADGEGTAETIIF
Description: Vasopressin V1b receptor binding assay. To be noted: CHO-K1 membranes, 3H-AVP displacement. Here is the method: 1. Vasopressin V1b Receptor Binding Assay:
The test substances were dissolved in a concentration of 10^−2 M in DMSO and further diluted to 5×10^−4 M to 5×10^−3 M. These serial DMSO predilutions were diluted 1:10 with assay buffer. The substance concentration was further diluted 1:5 in the assay mixture (2% DMSO in the mixture).
CHO-K1 cells with stably expressed human vasopressin V1b receptor (clone 3H2) were harvested and homogenized in 50 mM Tris-HCl and in the presence of protease inhibitors (Roche complete Mini #1836170) using a Polytron homogenizer at intermediate setting for 2×10 seconds, and subsequently centrifuged at 40 000×g for 1 h. The membrane pellet was again homogenized and centrifuged as described and subsequently taken up in 50 mM Tris-HCl, pH 7.4, homogenized and stored in aliquots frozen in liquid nitrogen at −190° C.
(§1) The binding assay was carried out by the method based on that of Tahara et al. (Tahara A et al., Brit. J. Pharmacol. 125, 1463-1470 (1998)).
(§2) The incubation buffer was: 50 mM Tris, 10 mM MgCl2, 0.1% BSA, pH 7.4.
In the assay mixture (250 μl), membranes (50 μg/ml protein in incubation buffer) from CHO-K1 cells with stably expressed human V1b receptors (cell line hV1b—3H2_CHO) were incubated with 1.5 nM ^3H-AVP (8-Arg-vasopressin, PerkinElmer #18479) in incubation buffer (50 mM Tris, 10 mM MgCl2, 0.1% BSA, pH 7.4) (total binding) or additionally with increasing concentrations of test substance (displacement experiment). The nonspecific binding was determined with […] (Bachem #H1780). All determinations were carried out as triplicate determinations. After incubation (60 minutes at room temperature), the free radioligand was filtered off by vacuum filtration (Skatron cell harvester 7000) through Wathman GF/B glass fiber filter mats, and the filters were transferred into scintillation vials. The liquid scintillation measurement took place in a model 2000 or 2200CA Tricarb instrument (Packard). Conversion of the measured cpm into dpm was carried out with the aid of a standard quench series.
The binding parameters were calculated by nonlinear regression in SAS. The algorithms of the program operate in analogy to the LIGAND analysis program (Munson P J and Rodbard D, Analytical Biochem. 107, 220-239 (1980)). The Kd of ^3H-AVP for the recombinant human V1b receptors is 0.4 nM and was used to determine the Ki.

The target of experiment [2] is T3, human vasopressin V1a receptor (Homo sapiens, UniProt P37288).
T3 construct: expressed in transfected cells; host or cells: CHO-K1 (cell line hV1a_5_CHO), membrane preparation
T3 sequence (P37288 whole entry): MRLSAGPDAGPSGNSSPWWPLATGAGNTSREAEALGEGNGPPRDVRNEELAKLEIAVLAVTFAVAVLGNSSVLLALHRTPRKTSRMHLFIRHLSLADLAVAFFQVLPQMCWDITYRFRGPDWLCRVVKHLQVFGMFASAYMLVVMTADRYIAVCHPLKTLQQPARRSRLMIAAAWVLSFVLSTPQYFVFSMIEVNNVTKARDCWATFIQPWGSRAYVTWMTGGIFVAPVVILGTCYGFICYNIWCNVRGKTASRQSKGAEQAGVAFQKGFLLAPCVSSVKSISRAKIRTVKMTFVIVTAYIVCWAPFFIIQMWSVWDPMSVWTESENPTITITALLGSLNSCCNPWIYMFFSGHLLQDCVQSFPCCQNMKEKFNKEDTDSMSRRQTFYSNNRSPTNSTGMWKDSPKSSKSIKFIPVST
Description: Vasopressin V1a receptor binding assay. To be noted: selectivity quotient, human receptors. As to the method: 2. Vasopressin V1a Receptor Binding Assay:
The test substances were dissolved in a concentration of 10^−2 M in DMSO. Further dilution of these DMSO solutions took place in incubation buffer (50 mM Tris, 10 mM MgCl2, 0.1% BSA, pH 7.4).
CHO-K1 cells with stably expressed human vasopressin V1a receptor (clone 5) were harvested and homogenized in 50 mM Tris-HCl and in the presence of protease inhibitors (Roche complete Mini #1836170) using a Polytron homogenizer at intermediate setting for 2×10 seconds, and subsequently centrifuged at 40 000×g for 1 h. The membrane pellet was again homogenized and centrifuged as described and subsequently taken up in 50 mM Tris-HCl, pH 7.4, homogenized and stored in aliquots frozen in liquid nitrogen at −190° C.
as §1, §2
In the assay mixture (250 μl), membranes (20 μg/ml protein in incubation buffer) from CHO-K1 cells with stably expressed human V1a receptors (cell line hV1a—5_CHO) were incubated with 0.04 nM ^125I-AVP (8-Arg-vasopressin, NEX 128) in incubation buffer (50 mM Tris, 10 mM MgCl2, 0.1% BSA, pH 7.4) (total binding) or additionally with increasing concentrations of test substance (displacement experiment). The nonspecific binding was determined with 1 μM AVP (Bachem #H1780). Triplicate determinations were carried out.
After incubation (60 minutes at room temperature), the free radioligand was filtered off by vacuum filtration (Skatron cell harvester 7000) through Wathman GF/B glass fiber filter mats, and the filters were transferred into scintillation vials.
The liquid scintillation measurement took place in a model 2000 or 2200CA Tricarb instrument (Packard). Conversion of the measured cpm into dpm was carried out with the aid of a standard quench series.
The binding parameters were calculated by nonlinear regression in SAS. The algorithms of the program operate in analogy to the LIGAND analysis program (Munson P J and Rodbard D, Analytical Biochem. 107, 220-239 (1980)). The Kd of ^125I-AVP for the recombinant hV1a receptors was determined in saturation experiments. A Kd of 1.33 nM was used to determine the Ki.

SMILES strings stand for the structures. pKi: −log10 of the molar value.

For the molecule `CCOc1ccccc1C1(NC(=O)N2CCC(N3CCN(CC)CC3)CC2)C(=O)N(S(=O)(=O)c2ccc(OC)cc2)c2cc(F)c(C#N)cc21` (stereo not drawn) [Example 17, 4-(4-Ethylpiperazin-1-yl)piperidine-1-[5-cyano-3-(2-ethoxyphenyl)-6-fluoro-1-(4-methoxyphenylsulfonyl)-2-oxo-2,3-dihydro-1H-indol-3-yl]carboxamide], on human oxytocin receptors, the “Ki(h − OT)/Ki(h − V1b)*” value is listed as “+++ (>75)”. The molecule also showed a pKi in experiment [1] of 8.00 to 9.00. In addition, in experiment [2], the “Ki(h − V1a)/Ki(h − V1b)*” value is “+ (10-<25)”.

Regarding `CCOc1ccccc1C1(NC(=O)N2CCC(N3CCN(CC)CC3)CC2)C(=O)N(S(=O)(=O)c2ccccc2)c2cc(F)c(C#N)cc21` (stereo not drawn) [Example 18, 4-(4-Ethylpiperazin-1-yl)piperidine-1-[1-phenylsulfonyl-5-cyano-3-(2-ethoxyphenyl)-6-fluoro-2-oxo-2,3-dihydro-1H-indol-3-yl]carboxamide], the “Ki(h − OT)/Ki(h − V1b)*” value at human oxytocin receptors was “+++ (>75)”. Further, the negative logarithm of the Ki (pKi) in experiment [1] was 8.00 to 9.00. Besides, the “Ki(h − V1a)/Ki(h − V1b)*” value in experiment [2] is recorded as “+ (10-<25)”.

Consider `CCOc1ncccc1C1(NC(=O)N2CCN(C3CCN(C)CC3)CC2)C(=O)N(S(=O)(=O)c2ccc(OC)cc2OC)c2cc(F)c(Cl)cc21` (stereo not drawn) [Example 19, 4-(1-Methylpiperidin-4-yl)piperazine-1-[5-chloro-1-(2,4-dimethoxyphenylsulfonyl)-3-(2-ethoxypyridin-3-yl)-6-fluoro-2-oxo-2,3-dihydro-1H-indol-3-yl]carboxamide], for which the “Ki(h − OT)/Ki(h − V1b)*” value on human oxytocin receptors is reported as “++ (25-75)”. This molecule had a pKi in experiment [1] of more than 9.00. In experiment [2], the “Ki(h − V1a)/Ki(h − V1b)*” value was “++ (25-75)”.

Turning to `CCOc1ncccc1C1(NC(=O)N2CCN(C3CCN(C)CC3)CC2)C(=O)N(S(=O)(=O)c2ccccc2)c2cc(F)c(Cl)cc21` (stereo not drawn) [Example 20, 4-(1-Methylpiperidin-4-yl)piperazine-1-[1-phenylsulfonyl-5-chloro-3-(2-ethoxypyridin-3-yl)-6-fluoro-2-oxo-2,3-dihydro-1H-indol-3-yl]carboxamide], on human oxytocin receptors, the “Ki(h − OT)/Ki(h − V1b)*” value is given as “++ (25-75)”. The same molecule had a pKi in experiment [1] of 8.00 to 9.00. For the same molecule, the “Ki(h − V1a)/Ki(h − V1b)*” value in experiment [2] is “+ (10-<25)”.

Regarding `CCOc1ncccc1C1(NC(=O)N2CCN(C3CCN(CC)CC3)CC2)C(=O)N(S(=O)(=O)c2ccc(OC)cc2OC)c2cc(F)c(Cl)cc21` (stereo not drawn) [Example 21, 4-(1-Ethylpiperidin-4-yl)piperazine-1-[5-chloro-1-(2,4-dimethoxyphenylsulfonyl)-3-(2-ethoxypyridin-3-yl)-6-fluoro-2-oxo-2,3-dihydro-1H-indol-3-yl]carboxamide], the “Ki(h − OT)/Ki(h − V1b)*” value at human oxytocin receptors is recorded as “+++ (>75)”. In experiment [1], the pKi was more than 9.00. The “Ki(h − V1a)/Ki(h − V1b)*” value in experiment [2] is on record as “++ (25-75)”.

`CCOc1ncccc1C1(NC(=O)N2CCN(C3CCN(CC)CC3)CC2)C(=O)N(S(=O)(=O)c2ccccc2)c2cc(F)c(Cl)cc21` (stereo not drawn) [Example 22, 4-(1-Ethylpiperidin-4-yl)piperazine-1-[1-phenylsulfonyl-5-chloro-3-(2-ethoxypyridin-3-yl)-6-fluoro-2-oxo-2,3-dihydro-1H-indol-3-yl]carboxamide]: the “Ki(h − OT)/Ki(h − V1b)*” value at human oxytocin receptors is “+++ (>75)”. In addition, in experiment [1], the pKi is 8.00 to 9.00. In addition, the “Ki(h − V1a)/Ki(h − V1b)*” value in experiment [2] is “+ (10-<25)”.

`CCOc1ncccc1C1(NC(=O)N2CCC(N3CCN(C)CC3)CC2)C(=O)N(S(=O)(=O)c2ccc(OC)cc2OC)c2cc(F)c(Cl)cc21` (stereo not drawn) [Example 23, 4-(4-Methylpiperazin-1-yl)piperidine-1-[5-chloro-1-(2,4-dimethoxyphenylsulfonyl)-3-(2-ethoxypyridin-3-yl)-6-fluoro-2-oxo-2,3-dihydro-1H-indol-3-yl]carboxamide]: on human oxytocin receptors, the “Ki(h − OT)/Ki(h − V1b)*” value is on record as “+++ (>75)”. This molecule gave a pKi in experiment [1] of more than 9.00. For the same molecule, the “Ki(h − V1a)/Ki(h − V1b)*” value in experiment [2] is listed as “+ (10-<25)”.

With `CCOc1ncccc1C1(NC(=O)N2CCC(C3CCN(C)CC3)CC2)C(=O)N(S(=O)(=O)c2ccc(OC)cc2OC)c2cc(F)c(Cl)cc21` (stereo not drawn) [Example 26, 1′-Methyl[4,4′]bipiperidinyl-1-[5-chloro-1-(2,4-dimethoxyphenylsulfonyl)-3-(2-ethoxy-pyridin-3-yl)-6-fluoro-2-oxo-2,3-dihydro-1H-indol-3-yl]carboxamide], the “Ki(h − OT)/Ki(h − V1b)*” value on human oxytocin receptors is given as “+++ (>75)”. Also, the pKi in experiment [1] was more than 9.00. The “Ki(h − V1a)/Ki(h − V1b)*” value in experiment [2] is recorded as “+ (10-<25)”.

These data come from US8546401B2, “5,6-disubstituted oxindole-derivatives and use thereof for treating vasopressin-dependent diseases” (AbbVie Deutschland GmbH & Co. KG, priority 2007, dated 2013).
